Results from US9353104B2, “Substituted pyridizinone derivatives as PDE10 inhibitors” (priority 2013, dated 2016).

Each molecule was assayed against human PDE10A2 (Homo sapiens (Human), UniProt Q9Y233) (assay: PDE10 fluorescence polarization (IMAP FP) inhibition assay). Details: human PDE10A2 lysate, FAM-labeled cAMP 50 nM, room temperature; read-out: PDE10A Ki.
Assay type: biochemical
Outline: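 Cytoplasmic lysate of AD293 cells transiently expressing human PDE10A2, diluted for ~20% conversion of 50 nM FAM-cAMP, in 10 mM Tris pH 7.2, 10 mM MgCl2, 1 mM DTT, 0.01% Tween-20. Reaction 30 min at room temperature, read by IMAP fluorescence polarization; 10-point 3-fold titrations, 1% DMSO as 0%, reference PDE10 inhibitor at 5,000× Ki as 100%.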

human PDE10A2, sequence (Q9Y233 267-1055): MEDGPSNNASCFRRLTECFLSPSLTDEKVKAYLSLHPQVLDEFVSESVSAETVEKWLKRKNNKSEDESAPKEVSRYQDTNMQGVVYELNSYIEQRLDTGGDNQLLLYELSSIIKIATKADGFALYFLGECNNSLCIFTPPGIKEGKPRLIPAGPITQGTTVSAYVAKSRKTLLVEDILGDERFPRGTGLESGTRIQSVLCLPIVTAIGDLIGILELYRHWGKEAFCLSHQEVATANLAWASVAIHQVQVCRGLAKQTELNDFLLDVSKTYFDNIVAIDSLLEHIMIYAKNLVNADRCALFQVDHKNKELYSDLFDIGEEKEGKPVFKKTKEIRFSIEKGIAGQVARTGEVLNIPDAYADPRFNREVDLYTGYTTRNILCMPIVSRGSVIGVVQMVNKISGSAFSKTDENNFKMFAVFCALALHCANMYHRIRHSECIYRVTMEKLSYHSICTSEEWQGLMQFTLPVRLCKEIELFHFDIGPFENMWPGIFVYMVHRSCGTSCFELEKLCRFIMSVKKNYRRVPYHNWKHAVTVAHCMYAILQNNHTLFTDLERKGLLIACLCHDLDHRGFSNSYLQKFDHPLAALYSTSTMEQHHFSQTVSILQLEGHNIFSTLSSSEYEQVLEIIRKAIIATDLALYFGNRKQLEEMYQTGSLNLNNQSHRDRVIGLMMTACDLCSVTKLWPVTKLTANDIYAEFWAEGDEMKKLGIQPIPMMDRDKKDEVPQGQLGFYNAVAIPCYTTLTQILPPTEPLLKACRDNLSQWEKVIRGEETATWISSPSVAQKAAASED

SMILES | Ki
Cc1ccc([C@H]2C[C@@H]2COc2cc(NCc3c(C)nn(C)c3Cl)c(=O)n(C)n2)nc1 [Example 38, 4-((5-chloro-1,3-dimethyl-1H-pyrazol-4-yl)methyl-amino)-2-methyl-6-(((1S,- 2S)-2-(5-methyl-pyridin-2-yl)cyclopropyl)methoxy)-pyridazin-3(2H)-one] | 1.53 nM
COc1ccc([C@H]2C[C@@H]2COc2cc(NCc3cncnc3)c(=O)n(C)n2)nc1 [Example 63, 6-(((1S,2S)-2-(5-methoxy-pyridin-2-yl)cyclopropyl-)-methoxy)-2-methyl-4-((pyrimidin-5-ylmethyl)-amino)pyridazin-3(2H)one] | 1.7 nM
CN(C)c1c(CNc2cc(OC[C@H]3C[C@@H]3c3ccn(C)n3)nn(C)c2=O)cnn1C [Example 82, 4-(((5-(dimethylamino)-1-methyl-1H-pyrazol-4-yl)methyl)amino)-2-methyl-6-(((1S,2S)-2-(1-methyl-1H-pyrazol-3-yl)cyclopropyl)methoxy)-pyridazin-3(2H)-one] | 75 nM
COc1ccc([C@H]2C[C@@H]2COc2cc(NCCc3nccs3)c(=O)n(C)n2)nc1 [Example 136, 6-(((1S,2S)-2-(5-methoxy-pyridin-2-yl)cyclopropyl-)methoxy)-2-methyl-4-(2-(thiazol-2-yl)ethylamino-)pyridazin-3(2H)-one] | 10.3 nM
Cc1cnn(C)c1CNc1cc(OC[C@H]2C[C@@H]2c2ccn(C)n2)nn(C)c1=O [Example 86, 4-(((1,4-dimethyl-1H-pyrazol-5-yl)methyl)amino)-2-methyl-6-(((1S,2S)-2-(1-methyl-1H-pyrazol-3-yl)cyclopropyl)methoxy)-pyridazin-3(2H)-one] | 9.4 nM
C#CCN(Cc1ccc(OC)cc1)c1cc(OC[C@H]2C[C@@H]2c2ccc(OC)cn2)nn(C)c1=O [Example 145, 4-((4-methoxybenzyl)(prop-2-ynyl)amino)-6-(((1S,2S)-2-(5-methoxypyridin-2-yl)cyclopropyl)methoxy)-2-methylpyridazin-3(2H)-one] | 7.9 nM
Cc1ccc([C@H]2C[C@@H]2COc2cc(NC(=O)c3cc(C)nn3C)c(=O)n(C)n2)nc1 [Example 102, 1,3-dimethyl-N-(2-methyl-6-(((1S,2S)-2-(5-methyl-pyridin-2-yl)cyclopropyl-)methoxy)-3-oxo-2,3-dihydropyridazin-4-yl)-1H-pyrazole-5-carboxamide] | 51.2 nM
Cc1ncc(CNc2cc(OC[C@H]3C[C@@H]3c3nn(C)c4ccccc34)nn(C)c2=O)s1 [Example 109, 2-methyl-6-(((1S,2S)-2-(1-methyl-1H-indazol-3-yl)cyclopropyl)methoxy)-4-((2-methylthiazol-5-yl)methylamino)pyridazin-3(2H)-one] | 2.15 nM
COc1ccc(Cn2cc(CNc3cc(OC[C@H]4C[C@@H]4c4ccc(OC)cn4)nn(C)c3=O)c(C)n2)cc1 [Example 77, 4-((1-(4-methoxybenzyl)-3-methyl-1H-pyrazol-4-yl)methylamino)-6-(((1S,2S)-2-(5-methoxy-pyridin-2-yl)cyclopropyl)-methoxy)-2-methyl-pyridazin-3(2H)-one] | 5.7 nM
Cc1nnc(CNc2cc(OC[C@H]3C[C@@H]3c3ccc(F)cn3)nn(C)c2=O)s1 [Example 7, 6-(((1S,2S)-2-(5-fluoropyridin-2-yl)cyclo-propyl)methoxy)-2-methyl-4-((5-methyl-1,3,4-thiadiazol-2-yl)methyl-amino)pyridazin-3(2H)one] | 0.535 nM
COc1ccc([C@H]2C[C@@H]2COc2cc(NCc3nnc(C)s3)c(=O)n(C)n2)nc1 [Example 4, 6-(((1S,2S)-2-(5-methoxy-pyridin-2-yl)cyclopropyl-)-methoxy)-2-methyl-4-((5-methyl-1,3,4-thiadiazol-2-yl)methylamino)pyridazin-3(2H)-one] | 0.015 nM
Cn1cc(CNc2cc(OC[C@H]3C[C@@H]3c3nn(C)c4ccccc34)nn(C)c2=O)cn1 [Example 111, 2-methyl-6-(((1S,2S)-2-(1-methyl-1H-indazol-3-yl)cyclopropyl)methoxy)-4-((1-methyl-1H-pyrazol-4-yl)methylamino)-pyridazin-3(2H)-one] | 1.9 nM

Continued by falling Ki, values first:

Ki | SMILES
1.27 nM | COc1ccc([C@H]2C[C@@H]2COc2cc(NCc3cnn(C)c3Cl)c(=O)n(C)n2)nc1 [Example 96, 4-(((5-chloro-1-methyl-1H-pyrazol-4-yl)methyl)-amino)-6-(((1S,2S)-2-(5-methoxypyridin-2-yl)-cyclopropyl)methoxy)-2-methylpyridazin-3(2H)one]
1.26 nM | Cn1cc(CNc2cc(OC[C@H]3C[C@@H]3c3ccc(F)cn3)nn(C)c2=O)cn1 [Example 19, 6-(((1S,2S)-2-(5-fluoropyridin-2-yl)cyclo-propyl)methoxy)-2-methyl-4-((1-methyl-1H-pyrazol-4-yl)methylamino-)-pyridazin-3(2H)-one]
0.806 nM | Cc1ccc(CNc2cc(OC[C@H]3C[C@@H]3c3ccn(C)n3)nn(C)c2=O)cn1 [Example 20, 2-methyl-6-(((1S,2S)-2-(1-methyl-1H-pyrazol-3-yl)cyclopropyl)methoxy)-4-((6-methylpyridin-3-yl)methylamino)pyridazin-3(2H)-one]
0.782 nM | Cc1ccc(CNc2cc(OC[C@H]3C[C@@H]3c3ccc(F)cn3)nn(C)c2=O)nc1 [Example 16, 6-(((1S,2S)-2-(5-fluoropyridin-2-yl)cyclopropyl)methoxy)-2-methyl-4-((5-methylpyridin-2-yl)methylamino)pyridazin-3(2H)-one]
0.706 nM | COc1ccc([C@H]2C[C@@H]2COc2cc(NCc3ccccn3)c(=O)n(C)n2)nc1 [Example 134, 6-(((1S,2S)-2-(5-methoxy-pyridin-2-yl)-cyclopropyl-)methoxy)-2-methyl-4-(pyridin-2-yl-methyl-amino)pyridazin-3(2H)one]
0.648 nM | COc1ccc([C@H]2C[C@@H]2COc2cc(NCc3cnn(C)n3)c(=O)n(C)n2)nc1 [Example 148, 6-(((1S,2S)-2-(5-methoxypyridin-2-yl)cyclopropyl)methoxy)-2-methyl-4-((2-methyl-2H-1,2,3-triazol-4-yl)methylamino)pyridazin-3(2H)-one]
0.502 nM | COc1ccc(CNc2cc(OC[C@H]3C[C@@H]3c3ccn(C)n3)nn(C)c2=O)cc1 [Example 17, 4-(4-methoxybenzylamino)-2-methyl-6-(((1S,2S)-2-(1-methyl-1H-pyrazol-3-yl)cyclopropyl)methoxy)-pyridazin-3(2H)-one]
0.34 nM | Cn1cc(CNc2cc(OC[C@H]3C[C@@H]3c3ccc(Cl)cn3)nn(C)c2=O)cn1 [Example 27, 6-(((1S,2S)-2-(5-chloro-pyridin-2-yl)cyclopropyl)-methoxy)-2-methyl-4-((1-methyl-1H-pyrazol-4-yl)methylamino)pyridazin-3(2H)-one]
0.122 nM | COc1ccc([C@H]2C[C@@H]2COc2cc(NCc3ccnc(C)c3)c(=O)n(C)n2)nc1 [Example 62, 6-(((1S,2S)-2-(5-methoxy-pyridin-2-yl)cyclopropyl-)-methoxy)-2-methyl-4-(((2-methylpyridin-4-yl)methyl)amino)pyridazin-3(2H)-one]
0.058 nM | CCc1cc(CNc2cc(OC[C@H]3C[C@@H]3c3ccc(OC)cn3)nn(C)c2=O)n(C)n1 [Example 137, 4-((3-ethyl-1-methyl-1H-pyrazol-5-yl)methylamino)-6-(((1S,2S)-2-(5-methoxypyridin-2-yl)cyclopropyl)methoxy)-2-methylpyridazin-3(2H)-one]
0.056 nM | Cc1ccc([C@H]2C[C@@H]2COc2cc(NCc3cn(C)nc3C(F)(F)F)c(=O)n(C)n2)nc1 [Example 104, 2-methyl-4-(((1-methyl-3-(trifluoromethyl)-1H-pyrazol-4-yl)methyl)-amino)-6-(((1S,2S)-2-(5-methylpyridin-2-yl)cyclo-propyl)methoxy)pyridazin-3(2H)-one]
0.048 nM | COc1ccc([C@H]2C[C@@H]2COc2cc(NCc3c[nH]nn3)c(=O)n(C)n2)nc1 [Example 146, 4-((1H-1,2,3-triazol-4-yl)methylamino)-6-(((1S,2S)-2-(5-methoxypyridin-2-yl)cyclopropyl)methoxy)-2-methylpyridazin-3(2H)-one]
0.045 nM | Cc1ccc([C@H]2C[C@@H]2COc2cc(NCc3nc(C)c(C)s3)c(=O)n(C)n2)nc1 [Example 127, 4-((4,5-dimethylthiazol-2-yl)methylamino)-2-methyl-6-(((1S,2S)-2-(5-methyl-pyridin-2-yl)cyclopropyl- )methoxy)pyridazin-3(2H)-one]
0.044 nM | Cc1cc(CNc2cc(OC[C@H]3C[C@@H]3c3ccn(C)n3)nn(C)c2=O)n(C)n1 [Example 21, 4-((1,3-dimethyl-1H-pyrazol-5-yl)methylamino)-2-methyl-6-(((1S,2S)-2-(1-methyl-1H-pyrazol-3-yl)cyclopropyl)methoxy)-pyridazin-3(2H)-one]
0.019 nM | Cc1ccc(CNc2cc(OC[C@H]3C[C@@H]3c3ccc(Cl)cn3)nn(C)c2=O)c(C)n1 [Example 54]
0.011 nM | Cc1ccc([C@H]2C[C@@H]2COc2cc(NCc3cnc(C)s3)c(=O)n(C)n2)nc1 [Example 13, 2-methyl-6-(((1S,2S)-2-(5-methylpyridin-2-yl)cyclopropyl)methoxy)-4-((2-methylthiazol-5-yl)methylamino)pyridazin-3(2H)-one]
0.003 nM | Cc1ccc([C@H]2C[C@@H]2COc2cc(NCc3cc(C)nn3C)c(=O)n(C)n2)nc1 [Example 14, 4-((1,3-dimethyl-1H-pyrazol-5-yl)methylamino-)-2-methyl-6-(((1S,2S)-2-(5-methylpyridin-2-yl)cyclopropyl)methoxy)-pyridazin-3(2H)-one]
0.001 nM | Cc1cc(CNc2cc(OC[C@H]3C[C@@H]3c3ccc4c(n3)CCC4)nn(C)c2=O)n(C)n1 [Example 121, 6-(((1S,2S)-2-(6,7-dihydro-5H-cyclopenta-[b]pyridin-2-yl)cyclop-ropyl)methoxy)-4-((1,3-dimethyl-1H-pyrazol-5-yl)methylamino)-2-methylpyridazin-3(2H)one]
